# Source: US11419852B2, “Beta-lactam compounds or salts thereof for use in long-acting prevention or treatment of a glucose metabolism disorder” (GLYCOLYSIS BIOMED CO., LTD., priority 2019, dated 2022)
# Marks after values point to notes of the source that are not given here.
# Legend:
# Format in all cases: in vivo
# [1] = Body weight of mice recorded weekly
# Description: (§1) Four to five weeks old db/db mice (BKS.Cg-Dock7^m+/+Lepr^db/JNarl) and m/m mice (BKS.Cg-Dock7^m+/Dock7^m+) were obtained from National Laboratory Animal Center ([…], Taiwan). […] PMI Nutrition International, Brentwood, Mo.) and water ad libitum. […] The mouse body weight (bw) and the amounts of water and food intake were recorded weekly for the entire study period.
# [2] = Food and water intake of mice
# Description: as §1
# db/db mice = experiment: Histopathological assessment (H&E stain)
# From the text: For histopathological assessment, all mice were sacrificed by 95% CO2 asphyxiation at the end of the study period. Their brain, liver, kidney, pancreas, and epididymal fat pads were removed, fixed in 10% phosphate-buffered formalin, and embedded in paraffin. Tissues embedded in paraffin were cut into […] sections that were then stained with hematoxylin-eosin (i.e., H&E stain).
# [3] = Ex 1: db/db mice, ertapenem i.p. 0.41 mg/g bw/day, 3 weeks
# [4] = Ex 3: db/db mice, daily dosing 3 weeks at doses of Table 10
smiles,measurement,setting,value
"C[C@@H](O)[C@H]1C(=O)N2C(C(=O)O)=C(S[C@@H]3CN[C@H](C(=O)Nc4cccc(C(=O)O)c4)C3)[C@H](C)[C@H]12 [DMH, ertapenem]",Body weight,"[1]; Ex 2 G4 db/db, DMH i.p. 0.1 mg/g bw/day, dosing 6 weeks, week 15",45.90 ± 1.18^b
same,Body weight,"[1]; Ex 2 G4 db/db, DMH i.p. 0.1 mg/g bw/day, dosing 6 weeks, week 16",46.80 ± 1.29^b
same,Body weight,"[1]; Ex 2 G4 db/db, DMH i.p. 0.1 mg/g bw/day, dosing 6 weeks, week 17",47.21 ± 1.26^b
same,Body weight,"[1]; Ex 2 G4 db/db, DMH i.p. 0.1 mg/g bw/day, dosing 6 weeks, week 18",48.14 ± 1.23^b
same,Body weight,"[1]; Ex 2 G4 db/db, DMH i.p. 0.1 mg/g bw/day, dosing 6 weeks, week 19",50.91 ± 1.22^b
same,Body weight,"[1]; Ex 2 G5 db/db, DMH i.p. 0.2 mg/g bw/day, dosing 6 weeks, Baseline",31.70 ± 1.46^b
same,Body weight,"[1]; Ex 2 G5 db/db, DMH i.p. 0.2 mg/g bw/day, dosing 6 weeks, week 1",31.31 ± 1.48^b
same,Body weight,"[1]; Ex 2 G5 db/db, DMH i.p. 0.2 mg/g bw/day, dosing 6 weeks, week 2",31.81 ± 1.12^bc
same,Body weight,"[1]; Ex 2 G5 db/db, DMH i.p. 0.2 mg/g bw/day, dosing 6 weeks, week 3",34.36 ± 0.75^bc
same,Body weight,"[1]; Ex 2 G5 db/db, DMH i.p. 0.2 mg/g bw/day, dosing 6 weeks, week 4",35.55 ± 0.61^bc
same,Body weight,"[1]; Ex 2 G5 db/db, DMH i.p. 0.2 mg/g bw/day, dosing 6 weeks, week 5",37.76 ± 0.49^bc
same,Body weight,"[1]; Ex 2 G5 db/db, DMH i.p. 0.2 mg/g bw/day, dosing 6 weeks, week 6",39.06 ± 0.54^bc
same,Body weight,"[1]; Ex 2 G5 db/db, DMH i.p. 0.2 mg/g bw/day, dosing 6 weeks, week 7",39.07 ± 0.45^bc
same,Body weight,"[1]; Ex 2 G5 db/db, DMH i.p. 0.2 mg/g bw/day, dosing 6 weeks, week 8",39.99 ± 0.39^bc
same,Body weight,"[1]; Ex 2 G5 db/db, DMH i.p. 0.2 mg/g bw/day, dosing 6 weeks, week 9",40.63 ± 0.27^bcd
same,Body weight,"[1]; Ex 2 G5 db/db, DMH i.p. 0.2 mg/g bw/day, dosing 6 weeks, week 10",41.39 ± 0.29^b
same,Body weight,"[1]; Ex 2 G5 db/db, DMH i.p. 0.2 mg/g bw/day, dosing 6 weeks, week 11",42.98 ± 0.35^b
same,Body weight,"[1]; Ex 2 G5 db/db, DMH i.p. 0.2 mg/g bw/day, dosing 6 weeks, week 12",44.66 ± 0.38^b
same,Body weight,"[1]; Ex 2 G5 db/db, DMH i.p. 0.2 mg/g bw/day, dosing 6 weeks, week 13",46.52 ± 0.45^b
same,Body weight,"[1]; Ex 2 G5 db/db, DMH i.p. 0.2 mg/g bw/day, dosing 6 weeks, week 14",46.10 ± 0.51^b
same,Body weight,"[1]; Ex 2 G5 db/db, DMH i.p. 0.2 mg/g bw/day, dosing 6 weeks, week 15",48.58 ± 0.55^b
same,Body weight,"[1]; Ex 2 G5 db/db, DMH i.p. 0.2 mg/g bw/day, dosing 6 weeks, week 16",49.65 ± 0.63^b
same,Body weight,"[1]; Ex 2 G5 db/db, DMH i.p. 0.2 mg/g bw/day, dosing 6 weeks, week 17",49.96 ± 0.68^b
same,Body weight,"[1]; Ex 2 G5 db/db, DMH i.p. 0.2 mg/g bw/day, dosing 6 weeks, week 18",50.71 ± 0.87^b
same,Body weight,"[1]; Ex 2 G5 db/db, DMH i.p. 0.2 mg/g bw/day, dosing 6 weeks, week 19",52.73 ± 1.04^b
same,Body weight,"[1]; Ex 2 G6 db/db, DMH i.p. 0.4 mg/g bw/day, dosing 6 weeks, Baseline",31.61 ± 1.03^b
same,Body weight,"[1]; Ex 2 G6 db/db, DMH i.p. 0.4 mg/g bw/day, dosing 6 weeks, week 1",31.23 ± 0.98^b
same,Body weight,"[1]; Ex 2 G6 db/db, DMH i.p. 0.4 mg/g bw/day, dosing 6 weeks, week 2",31.62 ± 0.77^bc
same,Body weight,"[1]; Ex 2 G6 db/db, DMH i.p. 0.4 mg/g bw/day, dosing 6 weeks, week 3",33.98 ± 0.54^b
same,Body weight,"[1]; Ex 2 G6 db/db, DMH i.p. 0.4 mg/g bw/day, dosing 6 weeks, week 4",34.29 ± 0.59^b
same,Body weight,"[1]; Ex 2 G6 db/db, DMH i.p. 0.4 mg/g bw/day, dosing 6 weeks, week 5",36.44 ± 0.71^b
same,Body weight,"[1]; Ex 2 G6 db/db, DMH i.p. 0.4 mg/g bw/day, dosing 6 weeks, week 6",37.16 ± 0.8^b
same,Body weight,"[1]; Ex 2 G6 db/db, DMH i.p. 0.4 mg/g bw/day, dosing 6 weeks, week 7",37.16 ± 0.93^b
same,Body weight,"[1]; Ex 2 G6 db/db, DMH i.p. 0.4 mg/g bw/day, dosing 6 weeks, week 8",38.67 ± 1.24^b
same,Body weight,"[1]; Ex 2 G6 db/db, DMH i.p. 0.4 mg/g bw/day, dosing 6 weeks, week 9",39.72 ± 1.36^bc
same,Body weight,"[1]; Ex 2 G6 db/db, DMH i.p. 0.4 mg/g bw/day, dosing 6 weeks, week 10",40.81 ± 1.34^b
same,Body weight,"[1]; Ex 2 G6 db/db, DMH i.p. 0.4 mg/g bw/day, dosing 6 weeks, week 11",42.61 ± 1.31^b
same,Body weight,"[1]; Ex 2 G6 db/db, DMH i.p. 0.4 mg/g bw/day, dosing 6 weeks, week 12",44.54 ± 1.63^b
same,Body weight,"[1]; Ex 2 G6 db/db, DMH i.p. 0.4 mg/g bw/day, dosing 6 weeks, week 13",45.69 ± 1.86^b
same,Body weight,"[1]; Ex 2 G6 db/db, DMH i.p. 0.4 mg/g bw/day, dosing 6 weeks, week 14",45.08 ± 1.89^b
same,Body weight,"[1]; Ex 2 G6 db/db, DMH i.p. 0.4 mg/g bw/day, dosing 6 weeks, week 15",47.29 ± 1.95^b
same,Body weight,"[1]; Ex 2 G6 db/db, DMH i.p. 0.4 mg/g bw/day, dosing 6 weeks, week 16",48.79 ± 1.95^b
same,Body weight,"[1]; Ex 2 G6 db/db, DMH i.p. 0.4 mg/g bw/day, dosing 6 weeks, week 17",48.99 ± 1.87^b
same,Body weight,"[1]; Ex 2 G6 db/db, DMH i.p. 0.4 mg/g bw/day, dosing 6 weeks, week 18",50.70 ± 1.87^b
same,Body weight,"[1]; Ex 2 G6 db/db, DMH i.p. 0.4 mg/g bw/day, dosing 6 weeks, week 19",53.56 ± 1.99^b
same,Body weight,"[1]; Ex 3: db/db mice, daily dosing 3 weeks at doses of Table 10, Baseline",29.3 ± 1^b
same,Body weight,"[1]; Ex 3: db/db mice, daily dosing 3 weeks at doses of Table 10, Final",38.3 ± 1^c
same,Body weight,"[1]; Ex 3: db/db mice, daily dosing 3 weeks at doses of Table 10, Week 3",33.5 ± 1^cd
same,Body weight,"[1]; Ex 3: db/db mice, daily dosing 3 weeks at doses of Table 10, Week 6 (stopped for 3 weeks)",35.1 ± 1^b
same,Body weight,"[1]; Ex 3: db/db mice, daily dosing 3 weeks at doses of Table 10, Week 9 (stopped for 6 weeks)",40.0 ± 1^c
same,Food and water intake vs DB group,"[2]; Ex 1: db/db mice, 0.41 mg/g bw/day i.p., entire study period, P<0.05",reduced
same,Diet intake,[2]; [3],5.0 ± 0.9 g/mice/day
same,Water intake,[2]; [3],6.8 ± 1.6 mL/mice/day
same,Food intake in db/db mice,"[2]; Ex 3, P<0.05",significantly reduced
same,Water intake in db/db mice,"[2]; Ex 3, P<0.05",significantly reduced
same,Diet intake,[2]; [4],5.2 ± 1^b g/mice/day
same,Water intake,[2]; [4],8.4 ± 1^c mL/mice/day
same,"Injuries in brain, liver, kidney, pancreas, and epididymal fat pads","db/db mice; Ex 1, after 3 weeks 0.41 mg/g bw/day i.p.",no significant injuries
same,Severity and incidence of liver glycogen storage vs DB group,"db/db mice; Ex 1, hepatocyte cytoplasm around central venous region",slighter
same,"Injuries in liver, kidney, pancreas, and epididymal fat pads",db/db mice; Ex 2,No significant injuries
